Assay results: patent publication US10463644B2, “Uses of sesquiterpene lactone compounds and their derivatives in drugs preparation” (ACCENDATECH, priority 2013, dated 2019)
Where two headings read alike, the source gives them in different places.

Legend:
[1] = test system: TNF-α secreted by synoviocyte; test: Content of TNF-α in culture supernatant of synoviocyte of RA model rats given test compound; assay type: in vivo; details: rat RA model, dose 30 mg/kg.2d; normal control 0.38 ± 0.027, NaCl 0.74 ± 0.098
How it was run: (§1)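 Test article is given to RA rats at 30 mg/kg.2d, and synoviocytes are isolated and cultured. Secreted TNF-α and PGE2 in the culture medium are measured by a shared protocol, while IL-1β release is measured by a different protocol. Comparison groups are saline (NaCl) and normal control rats.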

[2] = test system: PGE2 secreted by synoviocyte; test: Content of PGE2 in culture supernatant of synoviocyte of RA model rats given test compound; assay type: in vivo; details: rat RA model, dose 30 mg/kg.2d; normal control 8.34 ± 1.29, NaCl 32.44 ± 10.32
How it was run: as §1

[3] = test system: IL-1β secreted by synoviocyte; test: Content of IL-1β in culture supernatant of synoviocyte of RA model rats given test compound; assay type: in vivo; details: rat RA model, dose 30 mg/kg.2d; normal control 0.16 ± 0.034, NaCl 0.49 ± 0.136
How it was run: as §1

[4] = test system: cancer cells; test: Survival rate of cancer cells after test compound is added (flow cytometry, Annexin V-FITC/PI, clinical specimen); assay type: cell-based, patient; details: Homo sapiens, 18 h, read-out: Survival rate (%) All cells (Stem cells and ordinary cells)
How it was run: (§2)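 Steps: density-gradient isolation of mononuclear cells from fresh or cryopreserved clinical samples; 18-hour compound exposure at 1×10^6 cells/mL; staining for stem-cell surface markers, then Annexin V-FITC and PI; flow cytometric apoptosis analysis.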

[5] = test system: cancer stem cells; test: Survival rate of cancer stem cells after test compound is added (flow cytometry, Annexin V-FITC/PI, clinical specimen); assay type: cell-based, patient; details: Homo sapiens, 18 h
How it was run: as §2

[6] = Head and neck squamous cell carcinomas

For `C=C1CC[C@H]2C(=C)CC[C@H]3C(=C)C(=O)O[C@@H]3[C@@H]12` [Compound 25], the “Content of TNF-α in culture supernatant of synoviocyte (x ± s)” value [1] was 0.58 ± 0.056 ng/mL, the “Content of PGE2 in culture supernatant of synoviocyte (x ± s)” value [2] was 26.48 ± 2.57 ng/mL and the “Content of IL-1β in culture supernatant of synoviocyte (x ± s)” value [3] was 0.39 ± 0.067 ng/mL. The viability at 10 µM ([4]; AML) was 47%, the viability at 20 µM ([4]; AML) was 44% and the viability at 10 µM ([4]; Brain glioma) was 74%. The viability at 20 µM ([4]; Brain glioma) was 58%, the viability at 10 µM ([4]; Brain tumor) was 83% and the viability at 20 µM ([4]; Brain tumor) was 73%. For the same molecule, the viability at 10 µM ([4]; Breast cancer) was 74%, the viability at 20 µM ([4]; Breast cancer) was 65% and the viability at 10 µM ([4]; CLL) was 57%. It also gave a viability at 20 µM ([4]; CLL) of 45%, a viability at 10 µM ([4]; CML) of 64% and a viability at 20 µM ([4]; CML) of 49%. The viability at 10 µM ([4]; Children hepatoblastoma) was 53%, the viability at 20 µM ([4]; Children hepatoblastoma) was 47% and the viability at 10 µM ([4]; Colon adenocarcinoma) was 55%. For the same molecule, the viability at 20 µM ([4]; Colon adenocarcinoma) was 49%, the viability at 10 µM ([4]; Colorectal cancer) was 76% and the viability at 20 µM ([4]; Colorectal cancer) was 66%. The viability at 10 µM ([4]; Gastric cancer) was 54%, the viability at 20 µM ([4]; Gastric cancer) was 47% and the viability at 10 µM ([4]; Gastrointestinal tumor) was 63%. The viability at 20 µM ([4]; Gastrointestinal tumor) was 52%, the viability at 10 µM ([4]; Glioma) was 83% and the viability at 20 µM ([4]; Glioma) was 74%. For the same molecule, the viability at 10 µM [4, 6] was 67%, the viability at 20 µM [4, 6] was 58% and the viability at 10 µM ([4]; Laryngeal cancer) was 74%. It also gave a viability at 20 µM ([4]; Laryngeal cancer) of 64%, a viability at 10 µM ([4]; Liver cancer) of 65% and a viability at 20 µM ([4]; Liver cancer) of 54%. It also gave a viability at 10 µM ([4]; Lung adenocarcinoma) of 57%, a viability at 20 µM ([4]; Lung adenocarcinoma) of 46% and a viability at 10 µM ([4]; Lung cancer) of 54%. The viability at 20 µM ([4]; Lung cancer) was 37%, the viability at 10 µM ([4]; Malignant melanoma) was 81% and the viability at 20 µM ([4]; Malignant melanoma) was 66%. It also gave a viability at 10 µM ([4]; Nasopharynx cancer) of 54%, a viability at 20 µM ([4]; Nasopharynx cancer) of 48% and a viability at 10 µM ([4]; Ovarian cancer) of 76%. It also gave a viability at 20 µM ([4]; Ovarian cancer) of 67%, a viability at 10 µM ([4]; Pancreatic cancer) of 64% and a viability at 20 µM ([4]; Pancreatic cancer) of 48%. For the same molecule, the viability at 10 µM ([4]; Prostate cancer) was 56%, the viability at 20 µM ([4]; Prostate cancer) was 44% and the viability at 10 µM ([4]; Retinoblastoma) was 64%. For the same molecule, the viability at 20 µM ([4]; Retinoblastoma) was 54%, the viability at 10 µM ([4]; Skin cancer) was 66% and the viability at 20 µM ([4]; Skin cancer) was 58%. For the same molecule, the viability at 10 µM ([5]; AML) was 35%, the viability at 20 µM ([5]; AML) was 26% and the viability at 10 µM ([5]; Brain glioma) was 62%. For the same molecule, the viability at 20 µM ([5]; Brain glioma) was 47%, the viability at 10 µM ([5]; Brain tumor) was 72% and the viability at 20 µM ([5]; Brain tumor) was 66%. For the same molecule, the viability at 10 µM ([5]; Breast cancer) was 66%, the viability at 20 µM ([5]; Breast cancer) was 52% and the viability at 10 µM ([5]; CLL) was 46%. The viability at 20 µM ([5]; CLL) was 34%, the viability at 10 µM ([5]; CML) was 57% and the viability at 20 µM ([5]; CML) was 36%. It also gave a viability at 10 µM ([5]; Children hepatoblastoma) of 44%, a viability at 20 µM ([5]; Children hepatoblastoma) of 39% and a viability at 10 µM ([5]; Colon adenocarcinoma) of 42%. For the same molecule, the viability at 20 µM ([5]; Colon adenocarcinoma) was 35%, the viability at 10 µM ([5]; Colorectal cancer) was 62% and the viability at 20 µM ([5]; Colorectal cancer) was 55%. For the same molecule, the viability at 10 µM ([5]; Gastric cancer) was 43%, the viability at 20 µM ([5]; Gastric cancer) was 37% and the viability at 10 µM ([5]; Gastrointestinal tumor) was 54%. For the same molecule, the viability at 20 µM ([5]; Gastrointestinal tumor) was 44%, the viability at 10 µM ([5]; Glioma) was 71% and the viability at 20 µM ([5]; Glioma) was 65%. For the same molecule, the viability at 10 µM [5, 6] was 56%, the viability at 20 µM [5, 6] was 47% and the viability at 10 µM ([5]; Laryngeal cancer) was 64%. It also gave a viability at 20 µM ([5]; Laryngeal cancer) of 53%, a viability at 10 µM ([5]; Liver cancer) of 52% and a viability at 20 µM ([5]; Liver cancer) of 46%. For the same molecule, the viability at 10 µM ([5]; Lung adenocarcinoma) was 46%, the viability at 20 µM ([5]; Lung adenocarcinoma) was 34% and the viability at 10 µM ([5]; Lung cancer) was 42%. It also gave a viability at 20 µM ([5]; Lung cancer) of 29%, a viability at 10 µM ([5]; Malignant melanoma) of 62% and a viability at 20 µM ([5]; Malignant melanoma) of 54%. For the same molecule, the viability at 10 µM ([5]; Nasopharynx cancer) was 45%, the viability at 20 µM ([5]; Nasopharynx cancer) was 37% and the viability at 10 µM ([5]; Ovarian cancer) was 64%. It also gave a viability at 20 µM ([5]; Ovarian cancer) of 55%, a viability at 10 µM ([5]; Pancreatic cancer) of 54% and a viability at 20 µM ([5]; Pancreatic cancer) of 36%. For the same molecule, the viability at 10 µM ([5]; Prostate cancer) was 44%, the viability at 20 µM ([5]; Prostate cancer) was 31% and the viability at 10 µM ([5]; Retinoblastoma) was 55%. For the same molecule, the viability at 20 µM ([5]; Retinoblastoma) was 34%, the viability at 10 µM ([5]; Skin cancer) was 55% and the viability at 20 µM ([5]; Skin cancer) was 43%.
